The results in this text go back to patent US20110082157A1, “Piperidinylamino-Thieno [2,3-D] Pyrimidine Compounds” (priority 2004, published 2011).

For orientation: Ki means the equilibrium dissociation constant of an inhibitor or competing ligand from its target. A word on the IC50: it is the concentration needed to halve the response being measured. Read a high IC50 as lower potency. A word on the fraction unbound: it is free concentration divided by total concentration. High values mean much free substance, low ones little free substance. One may read the EC50 as the concentration needed to bring the measured effect to its halfway point. Low values mean an effect from little substance, high ones a need for much substance.

Structures are written as SMILES. Read-outs that look alike come from different tables or passages of the source.

Series [1] is described as follows: Rat pK. As to conditions: in vivo; for bioavailability: read-out: Rat pK: % F.
The target of series [2] is T1, D2S (Homo sapiens, UniProt P14416). The series is described as follows: D2S binding (Ki).
T1 sequence (P14416 1-414 isoform P14416-2): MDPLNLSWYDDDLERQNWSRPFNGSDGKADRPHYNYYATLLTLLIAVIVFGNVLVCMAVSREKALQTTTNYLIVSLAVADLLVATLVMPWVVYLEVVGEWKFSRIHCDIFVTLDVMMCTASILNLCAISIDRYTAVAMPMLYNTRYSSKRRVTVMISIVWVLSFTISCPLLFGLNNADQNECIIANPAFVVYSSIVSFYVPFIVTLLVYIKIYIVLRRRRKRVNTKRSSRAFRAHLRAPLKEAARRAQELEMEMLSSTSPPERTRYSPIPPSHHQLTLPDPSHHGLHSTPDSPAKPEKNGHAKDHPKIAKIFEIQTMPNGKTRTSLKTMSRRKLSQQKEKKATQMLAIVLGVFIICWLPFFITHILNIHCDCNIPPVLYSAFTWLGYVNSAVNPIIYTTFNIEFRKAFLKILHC
For series [3], the target named is T2, 5HT1A (Homo sapiens, UniProt P08908).
T2 sequence (P08908 1-422): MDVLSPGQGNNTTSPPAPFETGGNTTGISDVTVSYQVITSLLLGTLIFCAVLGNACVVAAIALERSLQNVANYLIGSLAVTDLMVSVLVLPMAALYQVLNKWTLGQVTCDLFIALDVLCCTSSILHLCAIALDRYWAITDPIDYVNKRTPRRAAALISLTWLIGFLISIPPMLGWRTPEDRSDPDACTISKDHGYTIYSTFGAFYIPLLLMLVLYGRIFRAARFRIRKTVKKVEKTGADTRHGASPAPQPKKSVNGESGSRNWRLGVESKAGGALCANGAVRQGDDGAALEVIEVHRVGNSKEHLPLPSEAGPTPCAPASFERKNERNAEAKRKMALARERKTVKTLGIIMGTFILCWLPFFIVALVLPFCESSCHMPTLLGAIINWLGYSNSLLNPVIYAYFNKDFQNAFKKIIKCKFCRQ
The series is described as follows: 5HT1A binding (Ki).

Series [4] relates to IP3. Kind of series: IC50 (IP3). It counts as cell-based.
Series [5] in a line: AMES Test. The series is classed as cell-based.
In series [6] the target is T3, 5HT2A (Homo sapiens, UniProt P28223). Kind of series: Functional activity 5HT2A. It counts as cell-based.
T3 sequence (P28223 whole entry, species assumed): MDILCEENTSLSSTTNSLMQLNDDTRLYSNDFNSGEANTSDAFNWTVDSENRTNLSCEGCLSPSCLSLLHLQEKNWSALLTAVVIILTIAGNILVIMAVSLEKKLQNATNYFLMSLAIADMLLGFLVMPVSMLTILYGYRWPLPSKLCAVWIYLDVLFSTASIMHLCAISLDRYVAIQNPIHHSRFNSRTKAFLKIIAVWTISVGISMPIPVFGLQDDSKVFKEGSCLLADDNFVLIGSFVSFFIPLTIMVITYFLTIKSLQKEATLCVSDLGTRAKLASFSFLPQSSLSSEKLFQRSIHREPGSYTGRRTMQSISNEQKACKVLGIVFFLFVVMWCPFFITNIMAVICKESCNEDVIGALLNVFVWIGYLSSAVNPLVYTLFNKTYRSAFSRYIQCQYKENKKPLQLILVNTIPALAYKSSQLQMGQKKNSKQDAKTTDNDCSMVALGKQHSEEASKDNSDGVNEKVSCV
Series [7] addresses hERG (Homo sapiens, UniProt Q12809). Kind of series: hERG % inhibition at 1 uM. In general terms: Block of hERG is tested as a sign of cardiac risk.
The target in series [8] is T2, 5HT1A. The series is described as follows: Functional activity 5HT1A. It counts as cell-based.
Series [9] has as its target 5HT2B (Homo sapiens, UniProt P41595). Kind of series: Functional activity IC50 (5HT2B antagonist). The series is classed as cell-based.
Series [10] can be described thus: % Protein Binding. It counts as in vitro ADME.
The target in series [11] is T1, D2S. Kind of series: Functional activity D2S. It counts as cell-based.
Series [12] has as its target D3 (Homo sapiens, UniProt P35462). The series is described as follows: D3 binding (Ki).
The target in series [13] is D2L (Homo sapiens, UniProt P14416). Kind of series: Functional activity D2L. The series is classed as cell-based.
D2L, sequence (P14416 whole entry): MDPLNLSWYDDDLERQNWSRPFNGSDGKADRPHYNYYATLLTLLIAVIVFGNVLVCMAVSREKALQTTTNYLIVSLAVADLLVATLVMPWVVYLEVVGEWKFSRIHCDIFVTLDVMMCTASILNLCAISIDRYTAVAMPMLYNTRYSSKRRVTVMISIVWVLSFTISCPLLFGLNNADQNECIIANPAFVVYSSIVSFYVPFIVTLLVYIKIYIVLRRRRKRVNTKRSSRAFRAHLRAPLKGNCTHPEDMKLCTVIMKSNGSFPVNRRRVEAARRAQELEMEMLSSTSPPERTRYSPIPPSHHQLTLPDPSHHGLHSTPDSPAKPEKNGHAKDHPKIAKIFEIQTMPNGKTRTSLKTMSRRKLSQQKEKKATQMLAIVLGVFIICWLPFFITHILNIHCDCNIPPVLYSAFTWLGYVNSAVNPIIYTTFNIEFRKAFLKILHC
The target of series [14] is T4, D4.4 (Homo sapiens, UniProt P21917).
T4 sequence (P21917 1-419): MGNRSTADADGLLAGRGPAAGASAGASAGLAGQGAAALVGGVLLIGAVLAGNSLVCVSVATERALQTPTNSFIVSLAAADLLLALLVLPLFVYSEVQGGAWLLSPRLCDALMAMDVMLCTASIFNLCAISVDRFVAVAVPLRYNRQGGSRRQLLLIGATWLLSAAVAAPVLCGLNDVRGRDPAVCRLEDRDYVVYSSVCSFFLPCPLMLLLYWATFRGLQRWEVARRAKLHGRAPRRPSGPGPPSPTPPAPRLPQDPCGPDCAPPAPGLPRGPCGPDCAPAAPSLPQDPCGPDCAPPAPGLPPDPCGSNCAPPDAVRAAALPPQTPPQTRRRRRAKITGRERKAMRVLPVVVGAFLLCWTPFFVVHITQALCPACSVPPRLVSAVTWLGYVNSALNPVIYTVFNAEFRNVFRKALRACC
Kind of series: D4.4 binding (Ki).

Series [15] concerns the target T3, 5HT2A. Kind of series: 5HT2A binding (Ki).
Series [16] addresses s 1 (Homo sapiens, UniProt Q99720). Kind of series: s 1 binding (Ki).
Series [17] addresses Na chan. The series is described as follows: Na channel binding (Ki).
The target of series [18] is D2 (Homo sapiens, UniProt P14416). The series is described as follows: Functional activity D2 (agonist / antagonist). It counts as cell-based.
D2, sequence (P14416 whole entry): as the sequence (P14416 whole entry) above
A short description of series [19]: Mouse pK. As to conditions: in vivo.
Series [20] addresses D1 (Homo sapiens, UniProt P21728). The series is described as follows: D1 binding (Ki).
The nature of series [21]: HLM T1/2. The following applies: human, liver microsomes. For orientation: Microsomes from liver hold many membrane-bound enzymes, among them those of drug oxidation.
The target of series [22] is T5, D4 (Homo sapiens, UniProt P21917).
T5 sequence (P21917 1-419): T4 sequence (P21917 1-419)
Kind of series: D4 binding (Ki). As to conditions: read-out: Ki (D4).

The mark [23] stands for this setting: iv, read-out: Rat pK: T1/2 (iv).
Where [24] appears, read: po, read-out: Rat pK: T1/2 (po).

hERG, sequence (Q12809 whole entry): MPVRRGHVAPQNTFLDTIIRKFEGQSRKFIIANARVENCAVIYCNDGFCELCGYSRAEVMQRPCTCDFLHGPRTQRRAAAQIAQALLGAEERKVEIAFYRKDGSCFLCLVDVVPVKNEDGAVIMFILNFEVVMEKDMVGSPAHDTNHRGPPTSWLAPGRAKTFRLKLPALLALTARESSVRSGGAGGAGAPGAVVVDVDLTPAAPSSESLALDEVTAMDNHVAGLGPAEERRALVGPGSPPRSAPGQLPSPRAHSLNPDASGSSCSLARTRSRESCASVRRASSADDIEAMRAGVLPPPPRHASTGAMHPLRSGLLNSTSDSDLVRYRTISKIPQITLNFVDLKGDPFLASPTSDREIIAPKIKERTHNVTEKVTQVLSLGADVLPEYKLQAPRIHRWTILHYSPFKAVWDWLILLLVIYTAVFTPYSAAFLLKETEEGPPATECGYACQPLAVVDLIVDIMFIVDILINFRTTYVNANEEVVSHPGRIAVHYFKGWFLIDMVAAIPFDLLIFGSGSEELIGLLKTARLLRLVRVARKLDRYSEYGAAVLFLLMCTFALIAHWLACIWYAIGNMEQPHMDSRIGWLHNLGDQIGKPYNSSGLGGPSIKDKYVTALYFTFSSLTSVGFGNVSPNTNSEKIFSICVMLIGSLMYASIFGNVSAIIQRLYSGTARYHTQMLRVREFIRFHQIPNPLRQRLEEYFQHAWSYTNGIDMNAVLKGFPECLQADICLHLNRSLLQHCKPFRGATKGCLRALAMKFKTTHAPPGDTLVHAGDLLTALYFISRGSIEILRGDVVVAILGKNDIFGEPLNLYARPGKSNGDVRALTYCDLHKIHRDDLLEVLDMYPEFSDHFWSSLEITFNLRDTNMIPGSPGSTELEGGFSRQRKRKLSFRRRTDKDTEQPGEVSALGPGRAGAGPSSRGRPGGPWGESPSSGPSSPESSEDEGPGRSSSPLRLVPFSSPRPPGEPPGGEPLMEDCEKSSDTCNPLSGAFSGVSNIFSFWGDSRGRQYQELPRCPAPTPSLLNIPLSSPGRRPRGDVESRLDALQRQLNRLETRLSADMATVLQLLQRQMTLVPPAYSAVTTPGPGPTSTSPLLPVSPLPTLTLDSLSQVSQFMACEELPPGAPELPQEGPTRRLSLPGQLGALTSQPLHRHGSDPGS
5HT2B, sequence (P41595 whole entry, species assumed): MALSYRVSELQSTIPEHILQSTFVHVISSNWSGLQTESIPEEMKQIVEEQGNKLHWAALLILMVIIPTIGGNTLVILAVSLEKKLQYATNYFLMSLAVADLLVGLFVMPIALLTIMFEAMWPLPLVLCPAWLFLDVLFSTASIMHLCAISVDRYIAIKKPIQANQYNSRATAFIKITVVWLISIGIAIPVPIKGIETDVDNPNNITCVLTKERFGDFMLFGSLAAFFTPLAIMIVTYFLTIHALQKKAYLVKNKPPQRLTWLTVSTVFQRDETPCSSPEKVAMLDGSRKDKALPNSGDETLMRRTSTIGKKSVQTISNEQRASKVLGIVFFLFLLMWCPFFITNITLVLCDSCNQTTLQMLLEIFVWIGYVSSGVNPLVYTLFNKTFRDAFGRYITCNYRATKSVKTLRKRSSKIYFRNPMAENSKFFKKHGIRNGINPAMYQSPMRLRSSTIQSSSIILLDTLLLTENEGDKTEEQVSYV
D3, sequence (P35462 whole entry): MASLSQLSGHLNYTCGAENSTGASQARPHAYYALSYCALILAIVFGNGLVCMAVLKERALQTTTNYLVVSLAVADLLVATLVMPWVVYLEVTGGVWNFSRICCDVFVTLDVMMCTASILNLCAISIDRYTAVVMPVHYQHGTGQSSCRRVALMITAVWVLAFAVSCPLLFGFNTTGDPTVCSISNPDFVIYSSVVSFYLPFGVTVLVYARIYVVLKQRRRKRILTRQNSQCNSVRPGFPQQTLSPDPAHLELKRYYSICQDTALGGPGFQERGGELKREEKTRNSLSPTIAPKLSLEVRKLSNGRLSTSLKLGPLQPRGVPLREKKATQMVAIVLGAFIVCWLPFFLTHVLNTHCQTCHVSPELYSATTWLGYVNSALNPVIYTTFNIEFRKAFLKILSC
s 1, sequence (Q99720 whole entry): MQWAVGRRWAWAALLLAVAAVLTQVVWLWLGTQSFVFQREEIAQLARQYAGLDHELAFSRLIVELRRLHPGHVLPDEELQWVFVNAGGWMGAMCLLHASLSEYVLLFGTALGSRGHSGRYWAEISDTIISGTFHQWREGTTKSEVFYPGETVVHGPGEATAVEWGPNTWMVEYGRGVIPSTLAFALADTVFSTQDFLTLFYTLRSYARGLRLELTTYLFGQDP
D1, sequence (P21728 whole entry): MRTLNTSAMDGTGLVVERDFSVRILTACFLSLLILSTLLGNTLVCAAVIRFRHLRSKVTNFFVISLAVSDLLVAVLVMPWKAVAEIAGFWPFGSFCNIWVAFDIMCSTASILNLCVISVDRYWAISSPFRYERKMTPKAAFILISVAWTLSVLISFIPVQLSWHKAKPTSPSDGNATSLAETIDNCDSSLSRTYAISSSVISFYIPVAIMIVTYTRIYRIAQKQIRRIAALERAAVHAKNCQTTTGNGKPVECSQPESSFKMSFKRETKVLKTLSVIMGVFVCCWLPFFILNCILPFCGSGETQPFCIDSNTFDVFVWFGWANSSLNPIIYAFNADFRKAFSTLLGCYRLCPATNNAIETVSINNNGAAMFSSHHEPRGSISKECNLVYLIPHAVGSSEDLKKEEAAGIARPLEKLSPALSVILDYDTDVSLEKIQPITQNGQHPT

Consider `Fc1cc(F)cc(CN2CCC(Nc3ncnc4sc(Cl)cc34)CC2)c1.O=C(O)/C=C\C(=O)O` [Example B34, N-(1-(3,5-difluorobenzyl)piperidin-4-yl)-6-chlorothieno[2,3-d]pyrimidin-4-amine, monomaleate], for which the figures for the half-life in [1] (setting [23]) and in [1] (setting [24]) were 24 min and 66 min, respectively. Besides, in series [1] (po), the bioavailability is 29.1%. Also, the inhibition constant Ki was 66 nM in [2] (NA: Not Active); 35 nM in series [3]; 140 nM in series [12]; 3.4 nM in series [14]; 260 nM in [15]. Further, the IC50 in series [4] was 0.74 nM; in series [9], 680 nM; in series [11], 63.3 nM; in [13], 17.2 nM. The “AMES Test” value in series [5] is reported as “Negative”. Further, in [6], the “Functional Activity IC50 (5HT2A)” value is on record as “Not Active”. Further, the “hERG (% Inhibition at 1 uM)” value in [7] is listed as 29.4%. Also, the “Functional Activity IC50 (5HT1A)” value in [8] is “Not Active”. In series [10], this compound had a free fraction (fraction unbound) of 0.01.
Consider `Fc1cccc(CN2CCC(Nc3ncnc4sc(Cl)cc34)CC2)c1.O=C(O)/C=C\C(=O)O` [Example B42, N-(1-(3-fluorobenzyl)piperidin-4-yl)-6-chlorothieno[2,3-d]pyrimidin-4-amine, monomaleate], for which the half-life in [1] (setting [23]) was found to be 24 min; in series [1] (setting [24]), 72 min. For the same compound, in series [1] (po), the bioavailability amounted to 22.4%. In addition, the Ki in [2] (NA: Not Active) was 170 nM; in [16], 6.7 nM; in series [3] it was 17 nM; in series [17], 250 nM; in series [12] it was 26 nM; in series [14], 4.7 nM. Also, the affinity in series [15], expressed as Ki, was 52 nM. The IC50 was 1.7 nM in series [4]; 340 nM in series [6]; 110 nM in series [9]; 292 nM in series [11]; 162 nM in [13]. Further, the “AMES Test” value in series [5] is “Negative”. The “hERG (% Inhibition at 1 uM)” value in series [7] amounted to 50.1%. Also, in series [8], the “Functional Activity IC50 (5HT1A)” value was “Not Active”. In addition, the fraction unbound in [10] is 0.017.
For `N#Cc1cccc(CN2CCC(Nc3ncnc4sc(Cl)cc34)CC2)c1` [Example B43, 3-((4-(6-chlorothieno [2,3-d]pyrimidin-4-ylamino)piperidin-1-yl)methyl) benzonitrile, monomaleate], the half-life came to 44.4 min in series [1] (setting [23]); 91.8 min in [1] (setting [24]); 30 min in series [19] (ip, read-out: Mouse pK: T1/2 (ip)); 26 min in series [19] (iv, read-out: Mouse pK: T1/2 (iv)); 22 min in series [21]. In addition, the bioavailability in series [1] (po) amounted to 17.2%; in series [19] (ip, read-out: Mouse pK: % F), 87%. The Ki in series [2] worked out at 1000 nM; in [16], 11 nM; in series [3] it was 280 nM; in [17] it was 970 nM; in series [20], 1200 nM; in series [12], 1300 nM. The affinity in series [14] corresponds to a Ki of 25 nM. In [18] (agonist), this compound had a 50% effective concentration (EC50) of 920 nM. The “IC50 (D2)” value in [18] (antagonist) is reported as “No antagonist activity”. The results for the IC50 in series [4] and in series [9] were 1.48 nM and 17.5 nM, respectively. Further, the “AMES Test” value in series [5] is “Negative”. Also, the “hERG (% Inhibition at 1 uM)” value in [7] came to 47.3%. Moreover, in [10], the fraction unbound turned out to be 0.018.
Regarding `CS(=O)(=O)c1cccc(CN2CCC(Nc3ncnc4sc(Cl)cc34)CC2)c1` [Example B58, N-(1-(3-(methylsulfonyl)benzyl)piperidin-4-yl)-6-chlorothieno[2,3-d]pyrimidin-4-amine, monomaleate], the Ki is more than 10000 nM in series [2] and 430 nM in series [22]. The compound further registered a half-life in [21] of 27 min.
